Legend:
mouse bone marrow cells = assay: Metabolism promoting action on mouse bone marrow cells (mitochondrial metabolism activity, MTT reduction method); type: cell-based, BALB/c mouse; settings: 5 days, magnitude of metabolism, no test compound = one; for activity at 0.39 µg/mL / activity at 0.78 µg/mL / activity at 1.56 µg/mL / activity at 3.13 µg/mL / activity at 6.25 µg/mL / activity at 12.5 µg/mL: Mus musculus, Bone marrow cell, 120 h
From the text: The presence of an immunoactivating action can be determined if the magnitude of metabolism exceeds one, where the cellular metabolism of cells not having test compounds added thereto is defined as one.

mouse spleen cells = assay: Action on the blastogenesis of mouse spleen cells (ConA-stimulated, MTT reduction method); type: cell-based, BALB/c mouse; settings: ConA 1 µg/ml, 3 days, rate against no test compound = one; for activity at 0.1 µg/mL / activity at 0.2 µg/mL / activity at 0.39 µg/mL / activity at 0.78 µg/mL / activity at 1.56 µg/mL / activity at 3.13 µg/mL / activity at 6.25 µg/mL: Mus musculus, 72 h
Procedure: Serial two-fold dilutions (100 µl/well) with 10% FBS of test compounds which are dissolved in a dimethyl sulfoxide (DMSO) solution are obtained on a 96-well microplate, and used as test samples.
The spleen of a BALB/c mouse is aseptically isolated, and gently ground on a wire mesh with dropwise addition of sterilzed saline. The filtrate is passed through a nylon mesh (Becton Dickinson; pore size: 70 µm), thereby preparing a unicellular suspension.
(§1) After being washed twice with sterilized saline, the spleen cells are suspended in RPMI1460 containing 10% FCS and containing 1 µg/ml of concanavalin A (abbreviated as ConA: Sigma, U.S.) as well as an antibiotic (Sigma: Antibiotic Antimycotic), and dispensed into a 96-well microplate, in which 100 µl each of diluted test samples are previously dispensed, in amounts of 3 × 10^5 cells/100 µl/well.
Thereafter, culturing is carried out under 5% carbon dioxide gas at 37°C for 3 days, and then the blastogenesis of lymphocytes is measured by an MTT reduction method [Mosmann T, Journal of Immunological Method, vol. 65, p. 55, 1983]. The blastogenesis rate can be quantitated as a rate against the blastogenesis of those not having test compounds added thereto, which is defined as one. The presence of an immunoactivating action can be determined if the blastogenesis rate exceeds one.
Serial two-fold dilutions (100 µl/well) with RPMI1640 (Nikken Biomedical Laboratory) containing 10% FBS (bovine fetal serum: Dainippon Pharmaceutical Co., Ltd.) of test compounds which were dissoloved in a dimethylsulfoxide (DMSO) solution were obtained on a 96-well microplate, and used as test samples.
The spleen of a BALB/c mouse (a 6 week-old female) was aseptically isolated, and gently ground on a wire mesh with dropwise addition of sterilzed saline. The filtrate was passed through a nylon mesh (Becton Dickinson; pore size: 70 µm), thereby preparing a unicellular suspension.
as §1, with “cells were” for “cells are”, “samples had” for “samples are”, “previously been” for “previously”, “of 3×10^5” for “of 3 × 10^5”
Thereafter, culturing was carried out under 5% carbon dioxide gas at 37°C for 3 days, and then the blastogenesis of lymphocytes was measured by an MTT reduction method [Mosmann T, Journal of Immunological Method, vol. 65, p. 55, 1983]. The results are shown in [Table 4].

[1] = Test compound concentration 0.39 µg/ml
[2] = Test compound concentration 0.78 µg/ml
[3] = Test compound concentration 1.56 µg/ml
[4] = Test compound concentration 3.13 µg/ml
[5] = Test compound concentration 6.25 µg/ml
[6] = Test compound concentration 12.5 µg/ml
[7] = concentration of additions in medium 0.1 μg/ml
[8] = concentration of additions in medium 0.2 μg/ml
[9] = concentration of additions in medium 0.39 μg/ml
[10] = concentration of additions in medium 0.78 μg/ml
[11] = concentration of additions in medium 1.56 μg/ml
[12] = concentration of additions in medium 3.13 μg/ml
[13] = concentration of additions in medium 6.25 μg/ml

Compound: 3-(2,4-dimethoxy-3-(3-methyl-2-butenyl)phenyl)-3,4-dihydro-5-hydroxy-7-methoxy-6-(3-methyl-2- butenyl)-2H-1-benzopyran [A-6]
- metabolism activity of mouse bone marrow cells (mouse bone marrow cells; [1]): 0.97
- metabolism activity of mouse bone marrow cells (mouse bone marrow cells; [2]): 1.05
- metabolism activity of mouse bone marrow cells (mouse bone marrow cells; [3]): 1.20
- metabolism activity of mouse bone marrow cells (mouse bone marrow cells; [4]): 1.52
- metabolism activity of mouse bone marrow cells (mouse bone marrow cells; [5]): 0.77
- metabolism activity of mouse bone marrow cells (mouse bone marrow cells; [6]): 0.51
- blastogenesis rate (mouse spleen cells; [7]): 1.12
- blastogenesis rate (mouse spleen cells; [8]): 1.05
- blastogenesis rate (mouse spleen cells; [9]): 1.12
- blastogenesis rate (mouse spleen cells; [10]): 1.26
- blastogenesis rate (mouse spleen cells; [11]): 1.55
- blastogenesis rate (mouse spleen cells; [12]): 2.46
- blastogenesis rate (mouse spleen cells; [13]): 3.28

Compound: COc1c(CC=C(C)C)c(O)cc2c1CC(c1ccc(O)c(CC=C(C)C)c1O)CO2 (stereo not shown) [A-1, 4-[3,4-dihydro-7-hydroxy-5-methoxy-6-(3-methyl-2-butenyl)-2H-1-benzopyran-3-yl]-2-(3-methyl-2-butenyl)-1,3-benzenediol]
- activity at 0.39 µg/mL (mouse bone marrow cells; [1]): 114%
- activity at 0.78 µg/mL (mouse bone marrow cells; [2]): 101%
- activity at 1.56 µg/mL (mouse bone marrow cells; [3]): 93%
- activity at 3.13 µg/mL (mouse bone marrow cells; [4]): 127%
- activity at 6.25 µg/mL (mouse bone marrow cells; [5]): 198%
- activity at 12.5 µg/mL (mouse bone marrow cells; [6]): 58%
- activity at 0.1 µg/mL (mouse spleen cells; [7]): 113%
- activity at 0.2 µg/mL (mouse spleen cells; [8]): 109%
- activity at 0.39 µg/mL (mouse spleen cells; [9]): 129%
- activity at 0.78 µg/mL (mouse spleen cells; [10]): 157%
- activity at 1.56 µg/mL (mouse spleen cells; [11]): 188%
- activity at 3.13 µg/mL (mouse spleen cells; [12]): 225%
- activity at 6.25 µg/mL (mouse spleen cells; [13]): 171%

Compound: COc1ccc(C2COc3cc(OC)c(CC=C(C)C)c(OC)c3C2)c(OC)c1CC=C(C)C (stereo not shown) [A-3, 3-(2,4-dimethoxy-3-(3-methyl-2-butenyl)phenyl)-3,4-dihydro-5,7-dimethoxy-6-(3-methyl-2-butenyl)-2H-1-benzopyran]
- activity at 0.39 µg/mL (mouse bone marrow cells; [1]): 111%
- activity at 0.78 µg/mL (mouse bone marrow cells; [2]): 108%
- activity at 1.56 µg/mL (mouse bone marrow cells; [3]): 114%
- activity at 3.13 µg/mL (mouse bone marrow cells; [4]): 114%
- activity at 6.25 µg/mL (mouse bone marrow cells; [5]): 111%
- activity at 12.5 µg/mL (mouse bone marrow cells; [6]): 62%
- activity at 0.1 µg/mL (mouse spleen cells; [7]): 98%
- activity at 0.2 µg/mL (mouse spleen cells; [8]): 88%
- activity at 0.39 µg/mL (mouse spleen cells; [9]): 88%
- activity at 0.78 µg/mL (mouse spleen cells; [10]): 79%
- activity at 1.56 µg/mL (mouse spleen cells; [11]): 83%
- activity at 3.13 µg/mL (mouse spleen cells; [12]): 120%
- activity at 6.25 µg/mL (mouse spleen cells; [13]): 246%

Compound: COc1ccc(C2COc3cc(OC)c(CC=C(C)C)c(OC)c3C2)c(O)c1CC=C(C)C (stereo not shown) [A-4, 3-(2-hydroxy-4-methoxy-3-(3-methyl-2-butenyl)-phenyl)-3,4-dihydro-5,7-dimethoxy-6-(3-methyl-2-butenyl)-2H-1-benzopyran]
- activity at 0.39 µg/mL (mouse bone marrow cells; [1]): 107%
- activity at 0.78 µg/mL (mouse bone marrow cells; [2]): 107%
- activity at 1.56 µg/mL (mouse bone marrow cells; [3]): 121%
- activity at 3.13 µg/mL (mouse bone marrow cells; [4]): 132%
- activity at 6.25 µg/mL (mouse bone marrow cells; [5]): 133%
- activity at 12.5 µg/mL (mouse bone marrow cells; [6]): 58%
- activity at 0.1 µg/mL (mouse spleen cells; [7]): 105%
- activity at 0.2 µg/mL (mouse spleen cells; [8]): 101%
- activity at 0.39 µg/mL (mouse spleen cells; [9]): 109%
- activity at 0.78 µg/mL (mouse spleen cells; [10]): 113%
- activity at 1.56 µg/mL (mouse spleen cells; [11]): 155%
- activity at 3.13 µg/mL (mouse spleen cells; [12]): 231%
- activity at 6.25 µg/mL (mouse spleen cells; [13]): 375%

Compound: COc1cc2c(c(OC)c1CC=C(C)C)CC(c1ccc(O)c(CC=C(C)C)c1OC)CO2 (stereo not shown) [A-5, 3-(4-hydroxy-2-methoxy-3-(3-methyl-2-butenyl)-phenyl)-3,4-dihydro-5,7-dimethoxy-6-(3-methyl-2-butenyl)-2H-1-benzopyran]
- activity at 0.39 µg/mL (mouse bone marrow cells; [1]): 116%
- activity at 0.78 µg/mL (mouse bone marrow cells; [2]): 120%
- activity at 1.56 µg/mL (mouse bone marrow cells; [3]): 138%
- activity at 3.13 µg/mL (mouse bone marrow cells; [4]): 146%
- activity at 6.25 µg/mL (mouse bone marrow cells; [5]): 55%
- activity at 12.5 µg/mL (mouse bone marrow cells; [6]): 53%
- activity at 0.1 µg/mL (mouse spleen cells; [7]): 101%
- activity at 0.2 µg/mL (mouse spleen cells; [8]): 96%
- activity at 0.39 µg/mL (mouse spleen cells; [9]): 107%
- activity at 0.78 µg/mL (mouse spleen cells; [10]): 111%
- activity at 1.56 µg/mL (mouse spleen cells; [11]): 118%
- activity at 3.13 µg/mL (mouse spleen cells; [12]): 209%
- activity at 6.25 µg/mL (mouse spleen cells; [13]): 239%

Compound: COc1ccc(C2COc3cc(O)c(CC=C(C)C)c(OC)c3C2)c(O)c1CC=C(C)C (stereo not shown) [A-7, 3-(2-hydroxy-4-methoxy-3-(3-methyl-2-butenyl)-phenyl)-3,4-dihydro-5-methoxy-7-hydroxy-6-(3-methyl-2-butenyl)-2H-1-benzopyran]
- activity at 0.39 µg/mL (mouse bone marrow cells; [1]): 103%
- activity at 0.78 µg/mL (mouse bone marrow cells; [2]): 112%
- activity at 1.56 µg/mL (mouse bone marrow cells; [3]): 139%
- activity at 3.13 µg/mL (mouse bone marrow cells; [4]): 152%
- activity at 6.25 µg/mL (mouse bone marrow cells; [5]): 51%
- activity at 12.5 µg/mL (mouse bone marrow cells; [6]): 51%
- activity at 0.1 µg/mL (mouse spleen cells; [7]): 113%
- activity at 0.2 µg/mL (mouse spleen cells; [8]): 107%
- activity at 0.39 µg/mL (mouse spleen cells; [9]): 132%
- activity at 0.78 µg/mL (mouse spleen cells; [10]): 161%
- activity at 1.56 µg/mL (mouse spleen cells; [11]): 195%
- activity at 3.13 µg/mL (mouse spleen cells; [12]): 293%
- activity at 6.25 µg/mL (mouse spleen cells; [13]): 408%

Compound: COc1c(C2COc3cc(O)c(CC=C(C)C)c(OC)c3C2)ccc(O)c1CC=C(C)C (stereo not shown) [A-8, 3-(4-hydroxy-2-methoxy-3-(3-methyl-2-butenyl)-phenyl)-3,4-dihydro-5-methoxy-7-hydroxy-6-(3-methyl-2-butenyl)-2H-1-benzopyran]
- activity at 0.39 µg/mL (mouse bone marrow cells; [1]): 113%
- activity at 0.78 µg/mL (mouse bone marrow cells; [2]): 127%
- activity at 1.56 µg/mL (mouse bone marrow cells; [3]): 161%
- activity at 3.13 µg/mL (mouse bone marrow cells; [4]): 156%
- activity at 6.25 µg/mL (mouse bone marrow cells; [5]): 50%
- activity at 12.5 µg/mL (mouse bone marrow cells; [6]): 51%
- activity at 0.1 µg/mL (mouse spleen cells; [7]): 111%
- activity at 0.2 µg/mL (mouse spleen cells; [8]): 99%
- activity at 0.39 µg/mL (mouse spleen cells; [9]): 112%
- activity at 0.78 µg/mL (mouse spleen cells; [10]): 122%
- activity at 1.56 µg/mL (mouse spleen cells; [11]): 103%
- activity at 3.13 µg/mL (mouse spleen cells; [12]): 34%
- activity at 6.25 µg/mL (mouse spleen cells; [13]): 23%
